# From patent publication US7642265B2, “Benzimidazoles and analogs thereof as antivirals” (Isis Pharmaceuticals, Inc., priority 2002, dated 2010)
# Like-named read-outs stand apart in the source and are kept apart here.
# Tests used:
# [1] = test system: stem IIa region of the HCV IRES (5′-UTR of HCV RNA); assay: Mass spectrometry based binding assay; conditions: for binding percentage of ligand to target: Table 1, ligand 50 μM, IIa target 2.5 μM
# [2] = Single dose in vivo pharmacokinetic study; design: species or system rats; conditions: plasma, rat, single 3.0 mg/kg IV dose, mean; for AUC: iv, 3 mg/kg
# Description: A single dose pharmacokinetic study was performed to investigate the pharmacokinetics of representative compounds. Of particular interest was the ability of the compounds to accumulate in liver, which is the target tissue for HCV chemotherapy as it is the primary reservoir of virus. 3-4 rats per group were administered a single dose (3 mg/kg intravenously, IV or 6 mg/kg orally, PO). Blood samples were taken at 0.25, 0.5, 1, 2, 3, 4, 6, and 8 h timepoints, and pharmacokinetic parameters calculated. Both representative compounds were rapidly distributed to tissues, as evidenced by the high clearance rates and volumes of distribution, and low levels of excretion (ca 10% of total drug in urine and feces at 8 h). Major tissues were examined for presence of drug. […] The tissue accumulation for the IV dose is shown in FIG. 1, as a function of concentration and percent of total administered dose.
smiles,measurement,setting,value
CN(C)CCCn1c(N)nc2ccccc21 [drawing 82],MS target selectivity,[1]; Table 3,~3
Nc1nc2ccccc2n1CCCN1CCCC1,binding percentage of ligand to target,[1],15%
COc1ccc2nc(N)n(CCCN(C)C)c2c1,MS target selectivity,[1]; Table 2,~10
CN(C)CCCOc1ccc2nc(N)n(CCCN(C)C)c2c1 [drawing 80],MS target selectivity,[1]; Table 2,~15
CN(C)CCn1c(N)nc2ccccc21,binding percentage of ligand to target,[1],11%
CN(C)CCCn1c(N)nc2ccccc21 [drawing 78],MS target selectivity,[1]; Table 2,~3
Nc1nc2ccccc2n1CCOc1ccccc1,binding percentage of ligand to target,[1],6%
CN(C)CCCn1c(N)nc2ccc(OCCCN(C)Cc3ccco3)cc21 [IBIS00405678],MRT,[2],3.1 h
same,half-life,[2],2250 min
same,AUC,[2]; read-out: AUC,311 ng·h/mL
same,AUC,[2]; read-out: AUC Extrap,1930 ng·h/mL
CN(C)CCCn1c(N)nc2ccccc21 [drawing 73],binding percentage of ligand to target,[1],56% binding
CN(C)CC1CNc2nc3ccc(OCCCN(C)Cc4ccccn4)cc3n2C1 (stereo not shown) [IBIS00528637],MRT,[2],2 h
same,half-life,[2],840 min
same,AUC,[2]; read-out: AUC,165 ng·h/mL
same,AUC,[2]; read-out: AUC Extrap,320 ng·h/mL
CN(C)CCCOc1ccc2nc(N)[nH]c2c1,MS target selectivity,[1]; Table 3,~2
CN(C)CCCOc1ccc2nc(N)n(CCCN(C)C)c2c1 [drawing 81],MS target selectivity,[1]; Table 3,~15
CCN(CC)CCn1c(N)nc2ccccc21,binding percentage of ligand to target,[1],15%
